One test has as its target BRD4 domain 2 (Homo sapiens, UniProt O60885). Kind of test: Kd determination of inhibitors binding to BRD4 domain 2 (Epic label-free platform). To be noted: direct binding to immobilized BRD4 domain 2; tripling dilution series from 20µM; about 1hr equilibrium; rounded to whole number. The procedure:
(§1) Kd Determination of Inhibitors Binding to BRD4 Domain 1 and Domain 2
(§2) The binding of small molecule inhibitors to either BRD4 domain 1 or domain 2 were determined using the Epic, high-throughput, label-free platform (Corning, Lowell, MA). The Epic instrument incorporates an evanescent waveguide sensor within each well of its proprietary 384-well microplates. Direct binding of inhibitors to BRD4 immobilized onto the microplate well surface can be detected by exposing the waveguide to a broadband light source. The resulting resonant wavelength shift (measured in picometers (pm)) is proportional to the mass bound to the surface. Epic biochemical plates (Corning, Lowell, MA) were activated by adding 15 µL/well of 200 mM EDC and 50 mM Sulfo-NHS (Pierce Thermo Scientific, Rockford, IL) and incubated for 60 minutes at room temperature. Plates were washed three times with MilliQ water and dried by centrifugation (1 minute at 400 rpm). BRD4 immobilization was accomplished by resuspending the protein at a concentration of 150 µg/mL in 20 mM HEPES (pH 7) and adding 10 µL/well. […] Compound/inhibitor binding was determined by calculating difference between the baseline (first read) and second read. The resulting binding response was fitted to a single site binding isotherm in order to determine an equilibrium dissociation constant (Kd).

The target of a further test is BRD4 domain 1 (Homo sapiens, UniProt O60885). Briefly: Kd determination of inhibitors binding to BRD4 domain 1 (Epic label-free platform). To be noted: direct binding to immobilized BRD4 domain 1; tripling dilution series from 20µM; about 1hr equilibrium; rounded to whole number; read-out: Epic Kd BRD41. As for the experimental part:
as §1, §2

As for `Cc1noc(C)c1-c1cc(S(=O)(=O)NC2CCCC2)c2cc(-n3ccnc3)c(=O)[nH]c2c1` [Compound 32, N-cyclopentyl-7-(3,5-dimethylisoxazol-4-yl)-3-(1H-imidazol-1-yl)-2-oxo-1,2-dihydroquinoline-5-sulfonamide], the Kd at BRD4 domain 2 came out at 0.519 µM; at BRD4 domain 1, 0.717 µM.

Turning to `Cc1noc(C)c1-c1cc(S(=O)(=O)NC2CCCC2)c2cc(-n3cccn3)c(=O)[nH]c2c1` [Compound 33, N-cyclopentyl-7-(3,5-dimethylisoxazol-4-yl)-2-oxo-3-(1H-pyrazol-1-yl)-1,2-dihydroquinoline-5-sulfonamide], the Kd at BRD4 domain 2 came to 0.561 µM; on BRD4 domain 1, 0.76 µM.

For `Cc1noc(C)c1-c1cc(S(=O)(=O)N[C@H]2C[C@@H](N)C2)c2cccnc2c1` [Compound 34, N-((1S,3S)-3-aminocyclobutyl)-7-(3,5-dimethylisoxazol-4-yl)quinoline-5-sulfonamide], the values for the Kd on BRD4 domain 2 and at BRD4 domain 1 were 11.1 µM and 5.48 µM, respectively.

In the case of `Cc1noc(C)c1-c1cc(S(=O)(=O)N[C@@H]2CCC[C@H]2C(=O)NC2CCCC2)c2cccnc2c1` [Compound 35, (1R,2R)-N-cyclopentyl-2-(7-(3,5-dimethylisoxazol-4-yl)quinoline-5-sulfonamido)cyclopen tanecarboxamide], the Kd was 19.7 µM on BRD4 domain 2 and more than 20 µM at BRD4 domain 1.

For the compound `Cc1noc(C)c1-c1cc(S(=O)(=O)NC2CCCC2)c2cc(-c3ccccn3)c(=O)[nH]c2c1` [Compound 36, N-cyclopentyl-7-(3,5-dimethylisoxazol-4-yl)-2-oxo-3-(pyridin-2-yl)-1,2-dihydroquinoline-5-sulfonamide], the dissociation constant (Kd) at BRD4 domain 2 was 0.718 µM; at BRD4 domain 1, 1.45 µM.

As to `Cc1noc(C)c1-c1cc(S(=O)(=O)NC2CCCC2)c2cc(-c3ncccn3)c(=O)[nH]c2c1` [Compound 37, N-cyclopentyl-7-(3,5-dimethylisoxazol-4-yl)-2-oxo-3-(pyrimidin-2-yl)-1,2-dihydroquinoline-5-sulfonamide], the Kd stood at 0.757 µM at BRD4 domain 2 and 2.09 µM at BRD4 domain 1.

Turning to `Cc1noc(C)c1-c1cc(S(=O)(=O)N[C@H]2C[C@@H]3CC[C@H]2C3)c2cccnc2c1` [Compound 38, N-((1S,2S,4R)-bicyclo[2.2.1]heptan-2-yl)-7-(3,5-dimethylisoxazol-4-yl)quinoline-5-sulfonamide], the Kd on BRD4 domain 2 came out at 3.49 µM; on BRD4 domain 1, 3.14 µM.

For `Cc1noc(C)c1-c1cc(S(=O)(=O)NC2CCC(C)(C)C2)c2cccnc2c1` (stereo not drawn) [Compound 39, N-(3,3-dimethylcyclopentyl)-7-(3,5-dimethylisoxazol-4-yl)quinoline-5-sulfonamide], the equilibrium dissociation constant (Kd) on BRD4 domain 2 stood at 13.4 µM; on BRD4 domain 1 it was 5.56 µM.

In the case of `Cc1noc(C)c1-c1cc(S(=O)(=O)NC2CC3CCC(C2)N3C)c2cccnc2c1` (stereo not drawn) [Compound 40, 7-(3,5-dimethylisoxazol-4-yl)-N-(8-methyl-8-azabicyclo[3.2.1]octan-3-yl)quinoline-5-sulfonamide], the Kd at BRD4 domain 2 is more than 20 µM; on BRD4 domain 1, 16 µM.

With `Cc1noc(C)c1-c1cc(S(=O)(=O)NC2CCCC2)c2cc(N)c(=O)[nH]c2c1` [Compound 41, 3-amino-N-cyclopentyl-7-(3,5-dimethylisoxazol-4-yl)-2-oxo-1,2-dihydroquinoline-5-sulfonamide], the Kd on BRD4 domain 2 worked out at 0.45 µM; at BRD4 domain 1 it was 0.4 µM.

For `Cc1noc(C)c1-c1cc(S(=O)(=O)N[C@@H]2CCC[C@H]2C(=O)NCc2nccn2C)c2cccnc2c1` [Compound 42, (1R,2R)-2-(7-(3,5-dimethylisoxazol-4-yl)quinoline-5-sulfonamido)-N-((1-methyl-1H-imidazol-2-yl)methyl)cyclopentan ecarboxamide], the Kd on BRD4 domain 2 is 6.84 µM; at BRD4 domain 1 it was 16.2 µM.

Take `Cc1noc(C)c1-c1cc(S(=O)(=O)N[C@@H]2CCC[C@@H]2C(=O)NCc2nccn2C)c2cccnc2c1` [Compound 43, (1S,2R)-2-(7-(3,5-dimethylisoxazol-4-yl)quinoline-5-sulfonamido)-N-((1-methyl-1H-imidazol-2-yl)methyl)cyclopentan ecarboxamide]: the figures for the equilibrium dissociation constant (Kd) at BRD4 domain 2 and on BRD4 domain 1 were 10.7 µM and more than 20 µM, respectively.

As for `Cc1noc(C)c1-c1cc(S(=O)(=O)NC2CCCC2)c2ccc(N3CCNCC3)nc2c1` [Compound 44, N-cyclopentyl-7-(3,5-dimethylisoxazol-4-yl)-2-(piperazin-1-yl)quinoline-5-sulfonamide], the results for the Kd on BRD4 domain 2 and at BRD4 domain 1 were 0.504 µM and 0.799 µM, respectively.

Consider `Cc1noc(C)c1-c1cc(S(=O)(=O)N[C@@H]2CCC[C@H]2NC(=O)OC(C)(C)C)c2cccnc2c1` [Compound 45, tert-butyl ((1R,2R)-2-(7-(3,5-dimethylisoxazol-4-yl)quinoline-5-sulfonamido)cyclopentyl)carbamate], for which the Kd at BRD4 domain 2 is more than 20 µM; at BRD4 domain 1 it was 14.6 µM.

`Cc1noc(C)c1-c1cc(S(=O)(=O)N[C@@H]2CCC[C@H]2C(=O)N2CCNCC2)c2cccnc2c1` [Compound 47, 7-(3,5-dimethylisoxazol-4-yl)-N-((1R,2R)-2-(piperazine-1-carbonyl)cyclopentyl) quinoline-5-sulfonamide]: the equilibrium dissociation constant (Kd) was determined as 2.27 µM at BRD4 domain 2 and 3.16 µM at BRD4 domain 1.

With `Cc1noc(C)c1-c1cc(S(=O)(=O)NCCc2ccccc2)c2ccc(=O)[nH]c2c1` [Compound 48, 7-(3,5-dimethylisoxazol-4-yl)-2-oxo-N-phenethyl-1,2-dihydroquinoline-5-sulfonamide], the results for the Kd at BRD4 domain 2 and at BRD4 domain 1 were 20 µM and more than 20 µM, respectively.

Take `Cc1noc(C)c1-c1cc(S(=O)(=O)NC2(C#N)CC2)c2cccnc2c1` [Compound 49, N-(1-cyanocyclopropyl)-7-(3,5-dimethylisoxazol-4-yl)quinoline-5-sulfonamide]: the dissociation constant Kd was 18.8 µM on BRD4 domain 2 and more than 20 µM at BRD4 domain 1.

As for `Cc1noc(C)c1-c1cc(S(=O)(=O)N[C@@H]2CCC[C@@H]2C(=O)N2CCNCC2)c2cccnc2c1` [Compound 50, 7-(3,5-dimethylisoxazol-4-yl)-N-((1R,2S)-2-(piperazine-1-carbonyl)cyclopentyl) quinoline-5-sulfonamide], the Kd is 8.13 µM at BRD4 domain 2 and 7.17 µM at BRD4 domain 1.

As for `CC(=O)N[C@H]1CCC[C@H]1NS(=O)(=O)c1cc(-c2c(C)noc2C)cc2ncccc12` [Compound 51, N-((1S,2R)-2-(7-(3,5-dimethylisoxazol-4-yl)quinoline-5-sulfonamido)cyclopentyl)acetamide], the Kd at BRD4 domain 2 is 6.45 µM; on BRD4 domain 1 it was 7.62 µM.

Turning to `Cc1noc(C)c1-c1cc(S(=O)(=O)NC2(C#N)CCCC2)c2cccnc2c1` [Compound 52, N-(1-cyanocyclopentyl)-7-(3,5-dimethylisoxazol-4-yl)quinoline-5-sulfonamide], the Kd on BRD4 domain 2 is 11.7 µM; at BRD4 domain 1, more than 20 µM.

In the case of `CCN[C@H]1CCC[C@H]1NS(=O)(=O)c1cc(-c2c(C)noc2C)cc2ncccc12` [Compound 53, 7-(3,5-dimethylisoxazol-4-yl)-N-((1R,2S)-2-(ethylamino)cyclopentyl)quinoline-5-sulfonamide], the dissociation constant (Kd) at BRD4 domain 2 was 8.64 µM; on BRD4 domain 1, more than 20 µM.

As for `CCOC(=O)N[C@H]1CCC[C@H]1NS(=O)(=O)c1cc(-c2c(C)noc2C)cc2ncccc12` [Compound 54, ethyl ((1S,2R)-2-(7-(3,5-ditnethylisoxazol-4-yl)quinoline-5-sulfonamido)cyclopentyl)carbamate], the Kd is 7.99 µM on BRD4 domain 2 and 5.87 µM at BRD4 domain 1.

In the case of `Cc1noc(C)c1-c1cc(S(=O)(=O)NC2CCCC2)c2cc(N3CCOCC3)c(=O)[nH]c2c1` [Compound 55, N-cyclopentyl-7-(3,5-dimethylisoxazol-4-yl)-3-morpholino-2-oxo-1,2-dihydroquinoline-5-sulfonamide], the Kd on BRD4 domain 2 stood at 0.726 µM; at BRD4 domain 1, 1.34 µM.

With `Cc1noc(C)c1-c1cc(S(=O)(=O)NC2CCCC2)c2cc(N3CCNCC3)c(=O)[nH]c2c1` [Compound 56, N-cyclopentyl-7-(3,5-dimethylisoxazol-4-yl)-2-oxo-3-(piperazin-1-yl)-1,2-dihydroquinoline-5-sulfonamide], the figures for the Kd at BRD4 domain 2 and at BRD4 domain 1 were 0.611 µM and 0.933 µM, respectively.

`Cc1noc(C)c1-c1cc(S(=O)(=O)NC2CCCC2)c2cc(NCCO)c(=O)[nH]c2c1` [Compound 57, N-cyclopentyl-7-(3,5-dimethylisoxazol-4-yl)-3-((2-hydroxyethyl)amino)-2-oxo-1,2-dihydroquinoline-5-sulfonamide]: the Kd turned out to be 0.477 µM on BRD4 domain 2 and 0.444 µM at BRD4 domain 1.

Turning to `COCCNc1cc2c(S(=O)(=O)NC3CCCC3)cc(-c3c(C)noc3C)cc2[nH]c1=O` [Compound 58, N-cyclopentyl-7-(3,5-dimethylisoxazol-4-yl)-3-((2-methoxyethyl)amino)-2-oxo-1,2-dihydroquinoline-5-sulfonamide], the Kd turned out to be 0.32 µM on BRD4 domain 2 and 0.313 µM at BRD4 domain 1.

Turning to `Cc1noc(C)c1-c1cc(S(=O)(=O)NC2CCCC2)c2cc(N3CCCCC3)c(=O)[nH]c2c1` [Compound 60, N-cyclopentyl-7-(3,5-dimethylisoxazol-4-yl)-2-oxo-3-(piperidin-1-yl)-1,2-dihydroquinoline-5-sulfonamide], the Kd at BRD4 domain 2 was found to be 1.9 µM; at BRD4 domain 1 it was 2.23 µM.

The Kd is a measure of binding affinity in units of concentration.

The values above are taken from patent publication EP3074389B1, “QUINOLINE DERIVATIVES AS BROMODOMAIN INHIBITORS” (Gilead Sciences, Inc., priority 2013, dated 2015).
